Data from US8962842B2, “2-pyridone antimicrobial compositions” (priority 2010, dated 2015).

Assays:
[1] = system: Staphylococcus aureus (16 strains); test: MIC range, broader panel of Quotient Bioresearch strains (Table 3)
[2] = system: Acinetobacter baumannii, quinolone-resistant strains (Quotient Bioresearch catalogue); test: MIC against pathogens resistant against quinolones (Table 5); format: cell-based; conditions: Acinetobacter baumannii, GN54

Cc1c(-c2ccc3[nH]ncc3c2)ccn2c(=O)c(C(=O)[O-])cc(C3CC3)c12.[K+] [Example 23 K salt, potassium 1-cyclopropyl-8-(1H-indazol-5-yl)-9-methyl-4-oxo-4H-quinolizine-3-carboxylate] was tested, and the MIC ([1]; read-out: MIC Range High, Staphylococcus aureus (16 strains)) was 0.12 µg/mL, the MIC50 ([1]; read-out: MIC Range Median, Staphylococcus aureus (16 strains)) was 0.03 µg/mL and the MIC [2] was 1 µg/mL.
